Test results reported in the NIST ThermoML archive (doi:10.1021/je900596d).

Conditions: 263.49 K, Liquid, Vibrating tube method

FC(F)=C(F)C(F)(F)F [hexafluoropropene]
Conditions	mass density [kg/m3]
1283.2 kPa	1467.96
1321.2 kPa	1468.22
1359 kPa	1468.47
1389.9 kPa	1468.56
1425.3 kPa	1468.74
1461.6 kPa	1468.94
1497.9 kPa	1469.16
1539.1 kPa	1469.32
1576.4 kPa	1469.48
1610 kPa	1469.68
1646.8 kPa	1469.96
1683.2 kPa	1470.1
1718.2 kPa	1470.09
1769.7 kPa	1470.55
1804.7 kPa	1470.64
1839 kPa	1470.88
1873.5 kPa	1471.02
1912.3 kPa	1471.22
1948.3 kPa	1471.32
1983.7 kPa	1471.42
2017.6 kPa	1471.69
2077.4 kPa	1472.02
2137.9 kPa	1472.31
2195.3 kPa	1472.62
2252 kPa	1472.79
2309.6 kPa	1473.18
2367.3 kPa	1473.43
2430.6 kPa	1473.71
2489.1 kPa	1474.06
2551.6 kPa	1474.23
2614.8 kPa	1474.71
2675.4 kPa	1474.88
2733.4 kPa	1475.13
2790.5 kPa	1475.34
2848.5 kPa	1475.67
2905.6 kPa	1475.93
2969.6 kPa	1476.29
3029.8 kPa	1476.52
3093.3 kPa	1476.76
3152.2 kPa	1477.08
3211.2 kPa	1477.32
3270.4 kPa	1477.64
3327.3 kPa	1477.91
3384.6 kPa	1478.13
3443.8 kPa	1478.55
3501.1 kPa	1478.67
3558.2 kPa	1479.03
3616.7 kPa	1479.25
3674.3 kPa	1479.49
3737.9 kPa	1479.79
3796.5 kPa	1480.12
3856.1 kPa	1480.36
3913.3 kPa	1480.59
3976.1 kPa	1480.92
4010.9 kPa	1481.02
4071.8 kPa	1481.39
4136 kPa	1481.55
4197.2 kPa	1481.92
4261.2 kPa	1482.25
4322.1 kPa	1482.4
4382.2 kPa	1482.79
4447.1 kPa	1482.98
4507.5 kPa	1483.36
4568.4 kPa	1483.61
4635.4 kPa	1483.93
4696.7 kPa	1484.25
4757 kPa	1484.43
4816.4 kPa	1484.73
4881.5 kPa	1484.9
4946.3 kPa	1485.39
5104.8 kPa	1485.97
5190.1 kPa	1486.45
5273.8 kPa	1486.72
5369.3 kPa	1487.1
5456.3 kPa	1487.53
5538.4 kPa	1487.84
5622.6 kPa	1488.18
5711.1 kPa	1488.61
5793.3 kPa	1489.06
5877.9 kPa	1489.31
5963.2 kPa	1489.67
6047.6 kPa	1490.11
6129.9 kPa	1490.42
6210.8 kPa	1490.7
6292.4 kPa	1491.15
6372.6 kPa	1491.45
6452.8 kPa	1491.79
6538.6 kPa	1492.18
6628.4 kPa	1492.5
6710.5 kPa	1492.84
6798.1 kPa	1493.29
6878.8 kPa	1493.62
6965.4 kPa	1493.98
7052.5 kPa	1494.32
7137.8 kPa	1494.61
7224.6 kPa	1495
7315.1 kPa	1495.44
7400.9 kPa	1495.77
7483.2 kPa	1496.09
7573.2 kPa	1496.53
7663 kPa	1496.86
7746.1 kPa	1497.24
7835.3 kPa	1497.57
7920.3 kPa	1497.86
8008.2 kPa	1498.24
8089.2 kPa	1498.57
8180.4 kPa	1498.95
8262.3 kPa	1499.34
8343 kPa	1499.65
8431 kPa	1499.96
8519.4 kPa	1500.29
8604.9 kPa	1500.75
8687 kPa	1500.96
8773.6 kPa	1501.36
8859.6 kPa	1501.69
8940.8 kPa	1502.04
9033.4 kPa	1502.38
9121.4 kPa	1502.79
9202.4 kPa	1503.09
9288.6 kPa	1503.44
9371.7 kPa	1503.79
9460.9 kPa	1504.15
9501.4 kPa	1504.21
9543.4 kPa	1504.4
9588.9 kPa	1504.56
9629.7 kPa	1504.74
9675.2 kPa	1504.91
9717.5 kPa	1505.02
9760.3 kPa	1505.19
9806 kPa	1505.39
9849.5 kPa	1505.65
9893.1 kPa	1505.74
9933.7 kPa	1505.89
